Earlier results in patent publication US6630442B1, “Reparatives for chemosurgery and laser (thermal) therapy” (priority 1997, dated 2003).

Columns and labels:
[1] = tested on: acute damage to the skin by sunburn induced by ultraviolet irradiation
[2] = tested on: lipid peroxidation in tissues; details: tissues of vitamin E deficient chicks
[3] = tested on: skin damage by ultraviolet irradiation
[4] = tested on: partial thickness burns or split thickness epidermal burns; details: mixed with topical creams, applied twice daily
granulating wounds = details: applied to granulating wounds
cells = details: in vitro

C[Se]CC[C@H](N)C(=O)O [selenomethionine]
protection against acute UV damage to the skin, measured by the minimal erythema dose ([1]; eight women, topical lotion 0.002%, 0.02% and 0.05%, solar ultraviolet simulator): effective in protecting against acute UV damage to the skin | plasma levels of selenium ([1]; volunteers after topical selenomethionine): remained unchanged | number of CD4+ T-cells in the reticular dermis of psoriatic lesions (psoriasis; human, in vivo): statistically significant increase | skin levels of selenium dependent glutathione peroxidase (psoriasis; normal and psoriatic skin): unchanged | increase in blood selenium post treatment (psoriasis; psoriasis patients with normal pretreatment selenium blood levels): 40% | in vivo lipid peroxidation [2]: inhibits in vivo lipid peroxidation | skin damage by ultraviolet irradiation (inflammation and pigmentation) ([3]; mice treated with selenomethionine): significantly less skin damage by ultraviolet irradiation | onset and incidence of skin cancers ([3]; mice treated with selenomethionine, UV irradiation): later onset and lesser incidence of skin cancers | selenium toxicity ([3]; mouse, in vivo, po): no evidence of selenium toxicity | concentration of selenium in skin in areas of topical application ([3]; topical lotion versus comparable oral doses): greater than those of the experimental animals given comparable oral doses

(−)epigallo catechin gallate [EGCG]
hydrogen peroxide formation (human leukocytes): inhibits hydrogen peroxide formation

EGF: Epidermal growth factor is a 53 amino acid polypeptide which stimulates messenger RNA, DNA and protein synthesis (NSDSECPLSHDGYCLHDGVCMYIEALDKYACNCVVGYIGERCQYRDLKWWELR; Epidermal growth factor; UniProt P01133 971-1023, looked up)
healing process of wounds [4]: highly significant increase in the healing process | concentrations of wound DNA and collagen hydroxyproline (granulating wounds): increase both the concentrations of DNA associated with cutaneous injury and of collagen hydroxyproline | exposure time needed to yield a mitogenic signal (cells): about five hours
